Among the data in US8258151B2, “3-aminoimidazo [1,2-A] pyridine derivatives as SGLT inhibitors” (Merck Patent GmbH, priority 2006, dated 2012) are IC50 values, retold here.

Experiment [1] deals with T1, SGLT1 (Homo sapiens, UniProt P13866).
T1 construct: expressed in transfected cells
T1 sequence (P13866 1-664): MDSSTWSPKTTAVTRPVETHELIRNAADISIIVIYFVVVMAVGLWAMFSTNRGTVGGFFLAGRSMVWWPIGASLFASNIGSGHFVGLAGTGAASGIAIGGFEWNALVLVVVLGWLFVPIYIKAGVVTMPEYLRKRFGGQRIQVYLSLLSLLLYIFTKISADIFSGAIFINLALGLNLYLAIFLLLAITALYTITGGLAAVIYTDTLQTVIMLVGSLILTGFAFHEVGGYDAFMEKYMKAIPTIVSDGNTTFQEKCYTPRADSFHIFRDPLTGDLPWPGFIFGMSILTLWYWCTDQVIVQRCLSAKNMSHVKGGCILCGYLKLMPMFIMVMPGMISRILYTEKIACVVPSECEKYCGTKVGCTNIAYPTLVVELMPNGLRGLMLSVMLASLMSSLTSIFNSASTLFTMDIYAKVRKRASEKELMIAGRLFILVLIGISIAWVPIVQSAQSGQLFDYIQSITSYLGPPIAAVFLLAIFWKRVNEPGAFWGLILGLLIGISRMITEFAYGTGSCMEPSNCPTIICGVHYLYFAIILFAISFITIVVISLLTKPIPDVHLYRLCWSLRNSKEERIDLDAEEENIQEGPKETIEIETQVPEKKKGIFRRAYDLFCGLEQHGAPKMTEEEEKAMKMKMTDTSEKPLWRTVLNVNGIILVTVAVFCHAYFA
The experiment can be described thus: SGLT1 activity measurement: 14C-AMG uptake in BHK cells transfected with SGLT1. The conditions noted are these: AMG 50 μM, 37° C., 90 min. In kind it is cell-based. The text has this: (§1) The compounds can be tested on their SGLT inhibition properties by means of BHK cells expressing SGLT1 and SGLT2. The production of the cells and the testing can be carried out as described below.
To construct the SGLT1 expression vector (KL225), the SLC5A1 gene (homologous to NM_000343) was amplified from a cDNA library using standard PCR technology and cloned over NheI/XhoI sites into pcDNA3.1 expression vector (Invitrogen) containing neomycin as a selection marker. In this vector, transcription uses the enhancer/promoter of human cytomegalovirus.
The final vector KL225 together with an additional vector containing a dihydrofolate reductase gene as a selection marker was introduced into cells. Transfection into BHK21 cells (ATCC CCL-10), cultivated in DMEM medium (GIBCO/BRL), supplemented with 10% foetal calf serum (FCS) and 20 mM glutamine, was carried out using calcium phosphate transfections according to Graham, F. L. and van der Ebb, A. J. (1973), Virology 52: 456 with 5-20 μg of uncut plasmids for 10^7 cells. Stable transfectants were selected in medium containing 1 mg/ml of G418 (GIBCO/BRL) and 20-5000 nM methotrexate as final concentration, where only cells which expressed the neomycin gene and overexpressed the dhfr gene were able to grow. After growth for 2-3 weeks, the cells were cloned (0.5 cells/well) and the clones were investigated for SGLT expression in the radioactive uptake assay. […]
(§2) A 96-well cell-based assay was developed and adapted to HTS requirements:
(§3) BHK cells (transfected with SGLT1 or SGLT2) were seeded into 96-well microtitre plates (Cultureplates, Perkin Elmer). After at least 24 h, medium was removed and the cell layer was washed with assay buffer (140 mM NaCl, 2 mM KCl, 1 mM CaCl2, 1 mM MgCl2, 10 mM HEPES, 5 mM Tris, adjusted with 1 M KOH to pH 7.4). After addition of 40 μl of assay buffer, 50 μl of AMG (50 μM for SGLT1 and 2 mM for SGLT2) in the presence or absence of compounds, the cells were incubated in a total volume of 100 μl at 37° C. for 90 min. Supernatant was removed by suction and discarded. The cells were washed and lysed by addition of 50 μl water. After 10 minutes at room temperature 200 μl Microscint 40 (Perkin Elmer) were added. The radioactivity was counted in a Topcount microplate scintillation counter (Perkin Elmer). The non-specific uptake was determined in sodium-free assay buffer (266 mM sucrose, 2 mM KCl, 1 mM CaCl2, 1 mM MgCl2, 10 mM HEPES, 5 mM Tris, adjusted with 1 M KOH to pH 7.4).

For experiment [2], the target named is T2, SGLT2 (Homo sapiens, UniProt P31639).
T2 construct: expressed in transfected cells
T2 sequence (P31639 1-672): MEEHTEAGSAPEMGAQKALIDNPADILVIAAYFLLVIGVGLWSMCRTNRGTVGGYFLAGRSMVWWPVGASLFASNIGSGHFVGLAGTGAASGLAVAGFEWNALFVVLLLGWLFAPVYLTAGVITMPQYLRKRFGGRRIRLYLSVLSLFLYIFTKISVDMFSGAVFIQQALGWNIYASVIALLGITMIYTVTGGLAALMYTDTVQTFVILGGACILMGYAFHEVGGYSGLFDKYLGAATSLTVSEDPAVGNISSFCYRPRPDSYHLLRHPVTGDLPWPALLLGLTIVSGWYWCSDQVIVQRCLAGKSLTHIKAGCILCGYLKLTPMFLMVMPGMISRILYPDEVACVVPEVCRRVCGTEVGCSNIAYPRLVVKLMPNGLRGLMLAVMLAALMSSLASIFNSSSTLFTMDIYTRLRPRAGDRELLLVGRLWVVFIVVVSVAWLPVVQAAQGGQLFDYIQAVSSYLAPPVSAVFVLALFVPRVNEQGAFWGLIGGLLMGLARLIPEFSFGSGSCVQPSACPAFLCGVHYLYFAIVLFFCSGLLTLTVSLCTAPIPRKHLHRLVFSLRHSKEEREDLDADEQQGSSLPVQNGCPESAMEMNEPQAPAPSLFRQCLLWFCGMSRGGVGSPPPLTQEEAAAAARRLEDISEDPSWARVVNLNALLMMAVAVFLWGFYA
The experiment can be described thus: SGLT2 activity measurement: 14C-AMG uptake in BHK cells transfected with SGLT2. In kind it is cell-based. The conditions noted are these: AMG 2 mM, 37° C., 90 min.
Source text: as §1
To construct the SGLT2 expression vector (KL224), the SLC5A2 gene (homologous to NM_003041) was amplified from a cDNA library using standard PCR technology and cloned over NheI/XhoI sites into PCI-neo expression vector (Promega) containing neomycin as a selection marker. In this vector, transcription used the enhancer/promoter of human cytomegalovirus and the SV40 polyadenylation signal.
The final vector KL224 together with an additional vector containing a dihydrofolate reductase gene as a selection marker was introduced into cells. Transfection into BHK21 cells (ATCC CCL-10), cultivated in DMEM medium (GIBCO/BRL), supplemented with 10% foetal calf serum (FCS) and 20 mM glutamine, was carried out using calcium phosphate transfections according to Graham, F. L. and van der Ebb, A. J. (1973), Virology 52: 456 with 5-20 μg of uncut plasmids for 10^7 cells. Stable transfectants were selected in medium containing 1 mg/ml of G418 (GIBCO/BRL) and 20-5000 nM methotrexate as final concentration, where only cells which expressed the neomycin gene and overexpressed the dhfr gene were able to grow. After growth for 2-3 weeks, the cells were cloned (0.5 cells/well) and the clones were investigated for SGLT expression in the radioactive uptake assay.
Principally, uptake of ^14C-α-methyl-D-glucopyranoside (AMG) in, for example, Xenopus oocytes injected with the corresponding cRNA has been described (for example Wen-Sen Lee et al. (1994), J. Biol. Chem. 269, 12032-12039; Guofeng You et al. (1995), J. Biol. Chem. 270, 29365-29371).
as §2, §3

One may read the IC50 as the point on the concentration scale where inhibition reaches its midpoint. A high value points to weaker potency. For the molecule `COc1cccc(OCC(N)=O)c1-c1nc2ccc(F)cn2c1Nc1c(C)cccc1C` [Compound A1, 2-[2-(aminocarbonylmethoxy)-6-methoxyphenyl]-3-(2,6-dimethylphenylamino)-6-fluoroimidazo[1,2-a]pyridine], the half-maximal inhibitory concentration (IC50) in experiment [1] was in the range of 1000 to 10000 nM; in experiment [2] it was 10 to 1000 nM.
For `Cc1cccc(C)c1Nc1c(-c2c(C)cccc2OCC(N)=O)nc2ccc(F)cn12` [Compound A2, 2-[2-(aminocarbonylmethoxy)-6-methylphenyl]-3-(2,6-dimethylphenylamino)-6-fluoroimidazo[1,2-a]pyridine], in that order: 1000 to 10000 nM and 10 to 1000 nM.
Consider `Cc1cccc(C)c1Nc1c(-c2c(Cl)cccc2OCC(N)=O)nc2ccc(F)cn12` [Compound A3, 2-[2-(aminocarbonylmethoxy)-6-chlorophenyl]-3-(2,6-dimethylphenylamino)-6-fluoroimidazo[1,2-a]pyridine], for which the IC50 in experiment [1] is 1000 to 10000 nM; in experiment [2], 10 to 1000 nM.
The like results for `Cc1cccc(C)c1Nc1c(-c2ccccc2OCC(N)=O)nc2ccccn12` [Compound A4, 2-[2-(Aminocarbonylmethoxy)phenyl]-3-(2,6-di-methylphenylamino)imidazo[1,2-a]pyridine] were, in that order, more than 10000 nM and 10 to 1000 nM.
The like results for `NC(=O)COc1ccccc1-c1nc2ccccn2c1Nc1c(Cl)cccc1Cl` [Compound A5, 2-[2-(Aminocarbonylmethoxy)phenyl]-3-(2,6-di-chlorophenylamino)imidazo[1,2-a]pyridine] were, in that order, more than 10000 nM and 10 to 1000 nM.
For `Cc1cccc(Cl)c1Nc1c(-c2ccccc2OCC(N)=O)nc2ccccn12` [Compound A6, 2-[2-(Aminocarbonylmethoxy)phenyl]-3-(2-chloro-6-methylphenylamino)imidazo[1,2-a]-pyridine], in that order: more than 10000 nM and 10 to 1000 nM.
`Cc1cccc(C(C)C)c1Nc1c(-c2ccccc2OCC(N)=O)nc2ccccn12` [Compound A7, 2-[2-(Aminocarbonylmethoxy)phenyl]-3-(2-isopropyl-6-methylphenylamino)imidazo-[1,2-a]pyridine]: the IC50 is more than 10000 nM in experiment [1] and 1000 to 10000 nM in experiment [2].
For `Cc1cccc(C)c1Nc1c(-c2ccccc2OCC(N)=O)nc2c(C)cccn12` [Compound A8, 2-[2-(Aminocarbonylmethoxy)phenyl]-3-(2,6-di-methylphenylamino)-8-methylimidazo[1,2-a]-pyridine], in that order: more than 10000 nM and 1000 to 10000 nM.
The like results for `Cc1cccc(C)c1Nc1c(-c2ccccc2OCC(N)=O)nc2cccc(C)n12` [Compound A9, 2-[2-(Aminocarbonylmethoxy)phenyl]-3-(2,6-di-methylphenylamino)-5-methylimidazo[1,2-a]-pyridine] were, in that order, more than 10000 nM and 10 to 1000 nM.
For `Cc1cccc(Cl)c1Nc1c(-c2ccccc2OCC(N)=O)nc2cccc(C)n12` [Compound A10, 2-[2-(Aminocarbonylmethoxy)phenyl]-3-(2-chloro-6-methylphenylamino)-5-methyl-imidazo[1,2-a]pyridine], in that order: 1000 to 10000 nM and 10 to 1000 nM.
Take `Cc1cccc2nc(-c3ccccc3OCC(N)=O)c(Nc3c(Cl)cccc3Cl)n12` [Compound A11, 2-[2-(Aminocarbonylmethoxy)phenyl]-3-(2,6-di-chlorophenylamino)-5-methylimidazo[1,2-a]-pyridine]: the concentration for half-maximal inhibition (IC50) in experiment [1] was in the range of 1000 to 10000 nM; in experiment [2], 10 to 1000 nM.
On to `Cc1cccc(C)c1Nc1c(-c2ccccc2OCC(N)=O)nc2cccc(Cl)n12` [Compound A12, 2-[2-(Aminocarbonylmethoxy)phenyl]-3-(2,6-dimethylphenylamino)-5-chloroimidazo[1,2-a]-pyridine], for which the IC50 in experiment [2] was 1000 to 10000 nM.
As for `Cc1cccc(C)c1Nc1c(-c2c(C)cc(OCCN(C)C)cc2OCC(N)=O)nc2ccccn12` [Compound A119, 2-[2-(Aminocarbonylmethoxy)-4-(2-dimethyl-aminoethoxy)-6-methylphenyl]-3-(2,6-dimethyl-phenylamino)imidazo[1,2-a]pyridine], the half-inhibitory concentration (IC50) in experiment [2] is 1000 to 10000 nM.
Same read-out and setting: for `COc1cc(OCC(N)=O)c(-c2nc3ccc(F)cn3c2Nc2c(C)cccc2C)cc1OC` [Compound A189, 2-[2-(Aminocarbonylmethoxy)-4,5-dimethoxy-phenyl]-3-(2,6-dimethylphenylamino)-6-fluoro-imidazo[1,2-a]pyridine] the value was 1000 to 10000 nM; for `COc1cc(C)c(-c2nc3c(O)cccn3c2Nc2c(C)cccc2C)c(OCC(N)=O)c1` [Compound A193, 2-[2-(Aminocarbonylmethoxy)-4-methoxy-6-methylphenyl]-3-(2,6-dimethylphenylamino)-8-hydroxyimidazo[1,2-a]pyridine], 1000 to 10000 nM; for `CCc1cc(OC)cc(OCC(N)=O)c1-c1nc2ccc(C(=O)O)cn2c1Nc1c(C)cccc1C` [Compound A223, 2-[2-(Aminocarbonylmethoxy)-4-methoxy-6-ethylphenyl]-3-(2,6-dimethylphenylamino)-6-carboxyimidazo[1,2-a]pyridine], 1000 to 10000 nM.
